The NIST ThermoML archive (doi:10.1021/je800837z)
Numbers after ± are expanded uncertainties.

Settings: Crystal; DTA

Normal melting temperature: 180.00 ± 1.1 °C
Compound: CCN1CCN(C(=O)N[C@H](C(=O)N[C@H]2C(=O)N3C(C(=O)[O-])=C(CSc4nnnn4C)CS[C@@H]23)c2ccc(O)cc2)C(=O)C1=O.[Na+]
